We go through 16 molecules from ChEMBL document CHEMBL1909046, “DrugMatrix in vitro pharmacology data”.

Molecules are shown by their SMILES.

In data set [1] the target is T1, 5-hydroxytryptamine receptor 2C (Homo sapiens, UniProt P28335).
T1 sequence (P28335 whole entry): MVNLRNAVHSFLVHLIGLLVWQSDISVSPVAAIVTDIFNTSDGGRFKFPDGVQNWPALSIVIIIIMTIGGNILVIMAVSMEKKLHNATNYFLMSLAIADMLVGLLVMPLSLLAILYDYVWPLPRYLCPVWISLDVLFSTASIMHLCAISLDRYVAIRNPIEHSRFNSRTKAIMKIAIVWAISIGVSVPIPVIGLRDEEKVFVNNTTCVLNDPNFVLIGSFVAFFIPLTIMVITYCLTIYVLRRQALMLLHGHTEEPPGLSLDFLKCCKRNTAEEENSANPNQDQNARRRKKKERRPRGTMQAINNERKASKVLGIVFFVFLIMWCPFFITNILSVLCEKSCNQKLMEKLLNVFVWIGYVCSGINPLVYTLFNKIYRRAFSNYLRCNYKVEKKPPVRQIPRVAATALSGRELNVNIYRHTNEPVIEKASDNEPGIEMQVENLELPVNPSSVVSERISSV
The data set is described as follows: DRUGMATRIX: Serotonin (5-Hydroxytryptamine) 5-HT2C radioligand binding (ligand: [3H] Mesulergine). Format: cell membranes, CHO-K1, Membrane. As to conditions: cho-k1; Not Active = under 50% inhibition at 10 µM.

The next data set concerns the target T2, Calcitonin receptor (Homo sapiens, UniProt P30988). Note: in other assays of this panel Not Active means under 50% inhibition at 10 µM.
T2 sequence (P30988 whole entry): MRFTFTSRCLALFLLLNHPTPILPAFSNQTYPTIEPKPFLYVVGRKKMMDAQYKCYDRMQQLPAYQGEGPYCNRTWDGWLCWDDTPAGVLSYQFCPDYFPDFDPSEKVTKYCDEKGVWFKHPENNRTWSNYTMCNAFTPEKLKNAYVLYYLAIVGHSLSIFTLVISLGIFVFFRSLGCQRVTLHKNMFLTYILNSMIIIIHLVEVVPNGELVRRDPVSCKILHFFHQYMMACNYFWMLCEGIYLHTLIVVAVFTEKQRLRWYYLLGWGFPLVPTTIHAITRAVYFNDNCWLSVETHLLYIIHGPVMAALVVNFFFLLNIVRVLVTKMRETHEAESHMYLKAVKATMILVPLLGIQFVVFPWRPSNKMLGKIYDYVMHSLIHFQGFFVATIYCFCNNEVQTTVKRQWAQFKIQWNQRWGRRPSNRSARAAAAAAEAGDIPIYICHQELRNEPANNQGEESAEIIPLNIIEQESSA
Format: cell membranes, Membrane. As to conditions: t47d.

Data set [2] deals with Mitogen-activated protein kinase 1 (Homo sapiens, UniProt P28482). In words: DRUGMATRIX: Protein Serine/Threonine Kinase, ERK2 enzyme inhibition (substrate: Myelin Basic Protein). As to conditions: Not Active = under 50% inhibition at 10 µM. Details: species or system Escherichia coli.
The next data set deals with Cytochrome P450 2C19 (Homo sapiens, UniProt P33261). As to conditions: bti-tn-5b1-4.
Data set [3] has as its target T3, Alpha-2A adrenergic receptor (Homo sapiens, UniProt P08913). Note: in other assays of this panel Not Active means under 50% inhibition at 10 µM.
T3 sequence (P08913 whole entry): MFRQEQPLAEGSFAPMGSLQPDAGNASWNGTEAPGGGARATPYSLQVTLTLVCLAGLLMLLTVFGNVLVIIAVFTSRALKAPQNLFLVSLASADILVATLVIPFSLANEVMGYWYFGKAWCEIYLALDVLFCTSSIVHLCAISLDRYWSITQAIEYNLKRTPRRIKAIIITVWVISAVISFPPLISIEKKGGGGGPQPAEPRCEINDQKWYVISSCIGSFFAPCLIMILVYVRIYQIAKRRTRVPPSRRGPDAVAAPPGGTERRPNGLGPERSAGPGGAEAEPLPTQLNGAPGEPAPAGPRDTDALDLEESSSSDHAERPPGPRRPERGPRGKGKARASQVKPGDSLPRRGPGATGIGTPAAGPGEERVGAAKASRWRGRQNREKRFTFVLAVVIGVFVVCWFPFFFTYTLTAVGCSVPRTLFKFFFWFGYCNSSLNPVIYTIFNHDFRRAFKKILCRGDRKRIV
Format: cell membranes, Sf9, Membrane. As to conditions: sf9.

Data set [4] has as its target T4, Polyunsaturated fatty acid lipoxygenase ALOX15 (Oryctolagus cuniculus, UniProt P12530).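 Note: inhibition of 15-lipoxygenase enzyme activity measured with linoleic acid as the substrate; in other assays of this panel Not Active means under 50% inhibition at 10 µM.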
T4 sequence (P12530 whole entry): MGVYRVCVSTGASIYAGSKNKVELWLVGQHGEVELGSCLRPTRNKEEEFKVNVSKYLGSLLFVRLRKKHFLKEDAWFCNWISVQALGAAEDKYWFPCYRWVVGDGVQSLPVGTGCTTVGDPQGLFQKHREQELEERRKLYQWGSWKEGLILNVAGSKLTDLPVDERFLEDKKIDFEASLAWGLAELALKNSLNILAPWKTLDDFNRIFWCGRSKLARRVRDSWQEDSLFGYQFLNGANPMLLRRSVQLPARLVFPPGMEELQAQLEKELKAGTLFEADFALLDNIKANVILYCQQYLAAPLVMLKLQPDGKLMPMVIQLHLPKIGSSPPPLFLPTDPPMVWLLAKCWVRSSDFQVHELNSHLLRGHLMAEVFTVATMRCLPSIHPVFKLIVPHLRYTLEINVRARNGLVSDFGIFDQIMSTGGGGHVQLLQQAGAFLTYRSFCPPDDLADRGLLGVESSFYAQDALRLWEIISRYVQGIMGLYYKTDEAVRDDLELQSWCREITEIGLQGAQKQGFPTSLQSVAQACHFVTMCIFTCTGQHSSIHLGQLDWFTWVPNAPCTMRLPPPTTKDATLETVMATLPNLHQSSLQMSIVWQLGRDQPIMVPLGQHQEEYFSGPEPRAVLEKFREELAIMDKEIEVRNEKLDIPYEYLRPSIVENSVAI
The data set is described as follows: biochemical. Format: tissue-based, Reticulocytes.
Throughout, for Ki: in other assays of this panel Not Active means under 50% inhibition at 10 µM.

Sequence of Cytochrome P450 2C19 (P33261 whole entry): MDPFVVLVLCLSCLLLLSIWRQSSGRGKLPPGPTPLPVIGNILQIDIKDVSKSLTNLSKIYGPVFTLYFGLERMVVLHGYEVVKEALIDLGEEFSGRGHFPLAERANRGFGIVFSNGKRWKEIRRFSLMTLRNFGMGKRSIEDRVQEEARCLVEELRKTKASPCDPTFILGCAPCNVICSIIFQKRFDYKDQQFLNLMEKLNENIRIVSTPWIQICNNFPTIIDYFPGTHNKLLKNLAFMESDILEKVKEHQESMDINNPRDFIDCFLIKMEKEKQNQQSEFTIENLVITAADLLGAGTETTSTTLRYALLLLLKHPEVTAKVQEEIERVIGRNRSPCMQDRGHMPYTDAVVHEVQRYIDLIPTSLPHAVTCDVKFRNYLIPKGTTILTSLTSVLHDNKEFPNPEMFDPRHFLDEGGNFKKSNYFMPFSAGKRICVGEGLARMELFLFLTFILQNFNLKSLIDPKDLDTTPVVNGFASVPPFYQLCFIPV
Sequence of Mitogen-activated protein kinase 1 (P28482 whole entry): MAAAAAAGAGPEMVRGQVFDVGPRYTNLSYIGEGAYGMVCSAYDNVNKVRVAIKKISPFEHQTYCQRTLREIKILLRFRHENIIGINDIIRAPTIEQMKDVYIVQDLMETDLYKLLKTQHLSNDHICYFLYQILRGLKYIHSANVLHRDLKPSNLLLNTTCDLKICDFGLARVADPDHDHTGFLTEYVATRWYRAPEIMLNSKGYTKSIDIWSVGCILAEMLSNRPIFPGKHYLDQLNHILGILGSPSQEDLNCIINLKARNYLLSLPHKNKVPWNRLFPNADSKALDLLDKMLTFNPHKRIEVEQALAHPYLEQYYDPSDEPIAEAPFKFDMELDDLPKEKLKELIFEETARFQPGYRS

By IC50 is commonly meant the concentration at which inhibition is half-maximal. Take `CN(C)/N=N/c1[nH]cnc1C(N)=O` [DACARBAZINE]: the IC50 entry (in data set [1]; on Calcitonin receptor; in data set [2]; on Cytochrome P450 2C19; in data set [3]; in data set [4] (reticulocytes)) was “Not Active” throughout. Moreover, on Cytochrome P450 2C19, the Ki result is recorded as “Not Active”.

As to `COc1ccc2c(c1)[C@]13CCCC[C@@H]1[C@H](C2)N(C)CC3` [DEXTROMETHORPHAN], the IC50 result (in data set [1]; on Calcitonin receptor; in data set [2]; on Cytochrome P450 2C19; in data set [3]; in data set [4] (reticulocytes)) was “Not Active” in each case. Also, at Cytochrome P450 2C19, the Ki result was “Not Active”.

With `CC(=O)Nc1c(I)c(NC(C)=O)c(I)c(C(=O)O)c1I` [DIATRIZOIC ACID], the IC50 result (in data set [1]; at Calcitonin receptor; in data set [2]; at Cytochrome P450 2C19; in data set [3]; in data set [4] (reticulocytes)) was “Not Active” in each case. For the same molecule, the Ki result on Cytochrome P450 2C19 is recorded as “Not Active”.

`COP(=O)(OC)OC=C(Cl)Cl` [DICHLORVOS]: the IC50 entry (in data set [1]; on Calcitonin receptor; in data set [2]; against Cytochrome P450 2C19; in data set [3]; in data set [4] (reticulocytes)) was “Not Active” each time. In addition, the Ki result on Cytochrome P450 2C19 is given as “Not Active”.

Consider `O=C(O)Cc1ccccc1Nc1c(Cl)cccc1Cl` [DICLOFENAC], for which the IC50 entry (in data set [1]; at Calcitonin receptor; in data set [2]; on Cytochrome P450 2C19; in data set [3]; in data set [4] (reticulocytes)) was “Not Active” in each case. In addition, at Cytochrome P450 2C19, the Ki result was “Not Active”.

In the case of `C[C@H]1O[C@@H](O[C@H]2[C@@H](O)C[C@H](O[C@H]3[C@@H](O)C[C@H](O[C@H]4CC[C@@]5(C)[C@H](CC[C@@H]6[C@@H]5CC[C@]5(C)[C@@H](C7=CC(=O)OC7)CC[C@]65O)C4)O[C@@H]3C)O[C@@H]2C)C[C@H](O)[C@@H]1O` [DIGITOXIN], the IC50 entry (in data set [1]; at Calcitonin receptor; in data set [2]; against Cytochrome P450 2C19; in data set [3]; in data set [4] (reticulocytes)) was “Not Active” throughout. The Ki result at Cytochrome P450 2C19 is reported as “Not Active”.

Regarding `CCN1CC(CCN2CCOCC2)C(c2ccccc2)(c2ccccc2)C1=O` (configuration not stated) [DOXAPRAM], the IC50 entry (in data set [1]; at Calcitonin receptor; in data set [2]; at Cytochrome P450 2C19; in data set [3]; in data set [4] (reticulocytes)) was “Not Active” in each case. For the same molecule, the Ki result on Cytochrome P450 2C19 is given as “Not Active”.

`Cn1c(=O)c2c(ncn2CC2OCCO2)n(C)c1=O` [DOXOFYLLINE]: the IC50 result (in data set [1]; on Calcitonin receptor; in data set [2]; against Cytochrome P450 2C19; in data set [3]; in data set [4] (reticulocytes)) was “Not Active” throughout. In addition, at Cytochrome P450 2C19, the Ki result is on record as “Not Active”.

On to `COc1cccc2c1C(=O)c1c(O)c3c(c(O)c1C2=O)C[C@@](O)(C(=O)CO)C[C@@H]3O[C@H]1C[C@H](N)[C@H](O)[C@H](C)O1` [DOXORUBICIN], for which the IC50 entry was “Not Active” in data set [1]; “Not Active” at Calcitonin receptor; “Not Active” in data set [2]; “Not Active” at Cytochrome P450 2C19; “Not Active” in data set [3]; 13.6 µM in data set [4] (read-out: IC50). Besides, the Ki entry on Cytochrome P450 2C19 is “Not Active”.

Regarding `COc1cccc2c1C(=O)c1c(O)c3c(c(O)c1C2=O)C[C@@](O)(C(=O)CO)C[C@@H]3O[C@H]1C[C@H](N)[C@@H](O)[C@H](C)O1` [EPIRUBICIN], the IC50 result (in data set [1]; at Calcitonin receptor; in data set [2]; on Cytochrome P450 2C19; in data set [3]; in data set [4] (reticulocytes)) was “Not Active” each time. The Ki entry at Cytochrome P450 2C19 is given as “Not Active”.

Regarding `C[C@]12CC[C@@H]3c4ccc(OC(=O)c5ccccc5)cc4CC[C@H]3[C@@H]1CC[C@@H]2O` [ESTRADIOL BENZOATE], the IC50 result (in data set [1]; at Calcitonin receptor; in data set [2]; at Cytochrome P450 2C19; in data set [3]; in data set [4] (reticulocytes)) was “Not Active” each time. For the same molecule, the Ki result on Cytochrome P450 2C19 is given as “Not Active”.

As to `C[C@]12CC[C@@H]3c4ccc(O)cc4CC[C@H]3[C@@H]1CC[C@@H]2O` [ESTRADIOL], the IC50 entry in data set [1] was “Not Active”; at Calcitonin receptor, “Not Active”; in data set [2], “Not Active”; against Cytochrome P450 2C19, “Not Active”; in data set [3], “Not Active”; in data set [4] (read-out: IC50) it was 11.3 µM. Further, the Ki result at Cytochrome P450 2C19 is reported as “Not Active”.

Regarding `CC[C@@H](CO)NCCN[C@@H](CC)CO` [ETHAMBUTOL], the IC50 entry (in data set [1]; on Calcitonin receptor; in data set [2]; against Cytochrome P450 2C19; in data set [3]; in data set [4] (reticulocytes)) was “Not Active” in each case. Further, the Ki entry at Cytochrome P450 2C19 is reported as “Not Active”.

With `CC1(C)O[C@@H]2C[C@H]3[C@@H]4C[C@H](F)C5=CC(=O)C=C[C@]5(C)[C@H]4[C@@H](O)C[C@]3(C)[C@]2(C(=O)CO)O1` [FLUNISOLIDE], the IC50 result (in data set [1]; at Calcitonin receptor; in data set [2]; at Cytochrome P450 2C19; in data set [3]; in data set [4] (reticulocytes)) was “Not Active” each time. Moreover, at Cytochrome P450 2C19, the Ki entry was “Not Active”.

As to `CC1(C)O[C@@H]2C[C@H]3[C@@H]4C[C@H](F)C5=CC(=O)C=C[C@]5(C)[C@@]4(F)[C@@H](O)C[C@]3(C)[C@]2(C(=O)CO)O1` [FLUOCINOLONE ACETONIDE], the IC50 entry (in data set [1]; on Calcitonin receptor; in data set [2]; at Cytochrome P450 2C19; in data set [3]; in data set [4] (reticulocytes)) was “Not Active” in each case. Also, the Ki result on Cytochrome P450 2C19 is given as “Not Active”.

With `CC1(C)O[C@@H]2C[C@H]3[C@@H]4C[C@H](F)C5=CC(=O)CC[C@]5(C)[C@H]4[C@@H](O)C[C@]3(C)[C@]2(C(=O)CO)O1` [FLURANDRENOLIDE], the IC50 result (in data set [1]; at Calcitonin receptor; in data set [2]; on Cytochrome P450 2C19; in data set [3]; in data set [4] (reticulocytes)) was “Not Active” in each case. Further, the Ki result at Cytochrome P450 2C19 is on record as “Not Active”.
